Measured values taken from patent US9334276B2, “Forms and salts of a dihydropyrrolo[1,2c]imidazolyl aldosterone synthase or aromatase inhibitor” (Novartis AG, priority 2012, dated 2016).
Like-named read-outs stand apart in the source and are kept apart here.

Legend:
[1] = Hygroscopicity: sorption/desorption isotherms, VTI 100 humidity microbalance; type: physicochemical; conditions: for Moisture gain (water uptake): 25° C.
Method: Sorption/desorption isotherms were measured using the VTI 100 humidity microbalance (VTI Corporation, Hialeah, Fla., USA). Measurements were carried out at 25° C. Samples were dried under N2 flow at 25° C.

[2] = Determination of solubility (excess solids equilibrated over 24 hours at 25° C.); type: physicochemical; conditions: thermodynamic from solid
Method: Excess solids were equilibrated in each solvent for over 24 hours at 25° C.±0.1. Concentration in supernatant was measured by gravimetry for organic solvents and by HPLC from aqueous solvents and propylene glycol.

Row | Compound | Moisture gain (water uptake) ([1]; 0% r.h.) | Moisture gain (water uptake) ([1]; 5% r.h., listed as Phosphate) | Moisture gain (water uptake) ([1]; 5% r.h., listed as phosphate salt) | Moisture gain (water uptake) ([1]; 25% r.h.) | Moisture gain (water uptake) ([1]; 50% r.h.) | Moisture gain (water uptake) ([1]; 75% r.h., listed as Phosphate) | Moisture gain (water uptake) ([1]; 75% r.h., listed as phosphate salt) | Moisture gain (water uptake) ([1]; 85% r.h.) | Moisture gain (water uptake) ([1]; 95% r.h.) | solubility ([2]; organic solvent or mixture, Ethyl Acetate, read-out: Solubility profile) | solubility ([2]; simulated gastric fluid, pH 1, read-out: Solubility profile) | Moisture gain (water uptake) ([1]; 5% r.h.) | Moisture gain (water uptake) ([1]; 75% r.h.) | Hygroscopicity (in words) ([1]; in contrast to the phosphate and nitrate salts) | Moisture gain (water uptake) ([1]; 5% r.h., listed as Nitrate)
1 | N#Cc1ccc([C@H]2CCc3cncn32)c(F)c1.O=P(O)(O)O [Phosphate salt, Phosphate salt of 4-(R)-(6,7-dihydro-5H-pyrrolo[1,2-c]imidazol-5-yl)-3-fluoro-benzonitrile (Form A)] | 0.0% | 0.0% | 0% | 0.1% | 0.1% | 0.2% | 0.9% | 0.3% | 0.8% | – | – | – | – | – | –
2 | N#Cc1ccc([C@H]2CCc3cncn32)c(F)c1 [Free base, 4-(R)-(6,7-Dihydro-5H-pyrrolo[1,2-c]imidazol-5-yl)-3-fluoro-benzonitrile] | 0.0% | – | – | 0.1% | 0.2% | – | – | 0.5% | 1.0% | > 50 mg/mL | > 50 mg/mL | 0.0% | 0.3% | – | –
3 | Cl.N#Cc1ccc([C@H]2CCc3cncn32)c(F)c1 [HCl salt, HCl salt of 4-(R)-(6,7-dihydro-5H-pyrrolo[1,2-c]imidazol-5-yl)-3-fluoro-benzonitrile, reference compound] | 0.0% | – | – | 0.5% | 0.2% | – | – | 3.3% | 23.6% | – | – | 0.0% | 0.2% | excessive hygroscopicity | –
4 | N#Cc1ccc([C@H]2CCc3cncn32)c(F)c1.O=[N+]([O-])O [nitrate salt, Nitrate salt of 4-(R)-(6,7-dihydro-5H-pyrrolo[1,2-c]imidazol-5-yl)-3-fluoro-benzonitrile] | 0.0% | – | – | 0.1% | 0.2% | – | – | 0.2% | 0.2% | – | – | 0% | 0.2% | – | 0.0%
